Where “and” joins values, the source holds several entries; their conditions need not be identical. Equal entries are not always repeated.
Columns and labels:
5-lipoxygenase (5-LO) = target: T1, 5-lipoxygenase (5-LO) (Homo sapiens, UniProt P09917); experiment: In vitro inhibition of 5-lipoxygenase in homogenised leukocytes (LTB4 radioimmunoassay); type: biochemical; details: homogenised leukocytes of aspirin-free volunteers, 5 μM arachidonic acid, 37° C., 5 minutes
T1 construct: The leukocytes were homogenised and 5 μM arachidonic acid added; from tissue; host or cells: homogenised blood leukocytes of normal aspirin-free volunteers
T1 sequence (P09917 1-674): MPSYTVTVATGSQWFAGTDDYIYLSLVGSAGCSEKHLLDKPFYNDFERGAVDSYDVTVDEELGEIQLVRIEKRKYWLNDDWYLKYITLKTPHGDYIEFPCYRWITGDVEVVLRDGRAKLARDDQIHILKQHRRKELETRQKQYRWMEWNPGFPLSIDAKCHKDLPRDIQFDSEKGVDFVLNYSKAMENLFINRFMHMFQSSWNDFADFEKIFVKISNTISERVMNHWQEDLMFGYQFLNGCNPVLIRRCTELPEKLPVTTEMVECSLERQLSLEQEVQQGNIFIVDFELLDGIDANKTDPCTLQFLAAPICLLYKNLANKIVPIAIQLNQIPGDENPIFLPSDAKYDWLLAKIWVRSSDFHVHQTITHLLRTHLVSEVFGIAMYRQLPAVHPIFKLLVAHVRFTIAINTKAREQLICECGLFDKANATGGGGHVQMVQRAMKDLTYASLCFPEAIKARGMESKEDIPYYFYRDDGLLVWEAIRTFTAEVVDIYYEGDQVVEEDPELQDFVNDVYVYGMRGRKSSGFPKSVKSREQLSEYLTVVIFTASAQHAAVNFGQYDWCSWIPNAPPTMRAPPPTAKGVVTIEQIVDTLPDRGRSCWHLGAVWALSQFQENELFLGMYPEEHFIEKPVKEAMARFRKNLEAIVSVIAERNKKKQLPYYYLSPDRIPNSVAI
Method: (§1) C. In vitro inhibition of 5-lipoxygenase (5-LO) and cyclo-oxygenase (CO) Blood from normal aspirin-free volunteers was centrifuged to separate leukocytes from red cells and platelets. The leukocytes were homogenised and 5 μM arachidonic acid added, followed by incubation at 37° C. for 5 minutes. The reaction was stopped by boiling and radioimmunoassays conducted for LTB4 and TXB2. Results were calculated as IC50 (μM) activity against each enzyme.

[1] = tested on: stimulated LTB4 synthesis; experiment: Stimulated LTB4 synthesis ex vivo after administration to rabbits of 10 mg/kg PO; type: in vivo
Method: B. Time for stimulated LTB4 synthesis ex vivo to return to 50% of original value after administration to rabbits of 10 mg/kg PO

[2] = Plasma concentration after administration to rabbits of 10 mg/kg PO; type: in vivo; details: rabbit; for Cmax: read-out: Maximum plasma concentration; for half-life: read-out: time for plasma concentration to fall to 50% of maximum value obtained after administration (converted)
Method: A. Maximum plasma concentration obtained after administration to rabbits of 10 mg/kg PO and time for plasma concentration to fall to 50% of maximum value obtained after administration

cyclo-oxygenase (CO) = target: T2, cyclo-oxygenase (CO) (Homo sapiens, UniProt P23219); experiment: In vitro inhibition of cyclo-oxygenase in homogenised leukocytes (TXB2 radioimmunoassay); type: biochemical; details: homogenised leukocytes of aspirin-free volunteers, 5 μM arachidonic acid, 37° C., 5 minutes
T2 construct: The leukocytes were homogenised and 5 μM arachidonic acid added; from tissue; host or cells: homogenised blood leukocytes of normal aspirin-free volunteers
Method: as §1

T2 sequence (P23219 24-599): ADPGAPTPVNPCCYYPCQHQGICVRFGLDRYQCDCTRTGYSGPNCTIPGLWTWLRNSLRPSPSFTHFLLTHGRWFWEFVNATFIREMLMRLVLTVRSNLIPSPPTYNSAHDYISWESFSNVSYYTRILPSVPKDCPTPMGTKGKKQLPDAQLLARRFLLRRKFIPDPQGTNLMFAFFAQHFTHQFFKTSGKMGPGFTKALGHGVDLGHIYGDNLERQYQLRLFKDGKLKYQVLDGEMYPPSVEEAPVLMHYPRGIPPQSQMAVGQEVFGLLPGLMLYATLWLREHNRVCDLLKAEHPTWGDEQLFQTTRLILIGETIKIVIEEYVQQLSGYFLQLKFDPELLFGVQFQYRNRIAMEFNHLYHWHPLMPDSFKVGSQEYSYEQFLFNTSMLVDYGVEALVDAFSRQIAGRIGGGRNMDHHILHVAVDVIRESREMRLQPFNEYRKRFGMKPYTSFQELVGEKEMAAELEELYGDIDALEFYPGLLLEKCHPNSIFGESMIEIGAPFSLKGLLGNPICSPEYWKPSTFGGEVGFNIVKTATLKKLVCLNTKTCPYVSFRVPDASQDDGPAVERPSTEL

Row | IC50 (5-lipoxygenase (5-LO)) | Cmax [2] [ng/mL] | half-life [2] [h] | IC50 (cyclo-oxygenase (CO)) [nM] | SMILES | Time for stimulated LTB4 synthesis ex vivo to return to 50% of original value [1] [h]
1 | 200 nM and 300 nM | 1070 | 11.3 | – | CC(=O)N(O)C(C)/C=C/c1cccc(Oc2ccc(F)cc2)c1 (stereo not drawn) [(E)-N-{1-methyl-3-[3-(4-fluorophenoxy)phenyl]prop-2-enyl}acetohydroxamic acid] | 24.0
2 | 10 nM | 710 | > 24 | 180 | CC(=O)N(O)C(C)/C=C/c1cccc(Oc2ccc(Br)cc2)c1 (stereo not drawn) [(E)-N-{1-Methyl-3-[3-(4-bromophenoxy)phenyl]prop-2-enyl}acetohydroxamic acid] | > 24
3 | – | 70 | 4.3 | – | CC(=O)N(O)C(C)/C=C/c1cccc(Oc2ccc(C)cc2)c1 (stereo not drawn) [(E)-N-{1-Methyl-3-[3-(4-methylphenoxy)phenyl]prop-2-enyl}acetohydroxamic acid] | –
4 | 80 nM | 930 | > 24 | > 1000 | CC(=O)N(O)C(C)/C=C/c1cccc(Oc2ccc(Cl)cc2)c1 (stereo not drawn) [(E)-N-{1-methyl-3-[3-(4-chlorophenoxy)phenyl]prop-2-enyl}acetohydroxamic acid] | > 24
5 | 500 nM | 160 | > 24 | – | CC(=O)N(O)C(C)/C=C/c1cccc(Oc2ccc(C(C)(C)C)cc2)c1 (stereo not drawn) [(E)-N-{1-Methyl-3-[3-(4-t-butylphenoxy)phenyl]prop-2-enyl}acetohydroxamic acid] | 2.4

The remaining lines, values behind:

Row | SMILES | IC50 (5-lipoxygenase (5-LO)) | Cmax [2] [ng/mL] | half-life [2] [h] | IC50 (cyclo-oxygenase (CO)) [nM] | Time for stimulated LTB4 synthesis ex vivo to return to 50% of original value [1] [h]
6 | CC(=O)N(O)C(C)/C=C/c1cccc(Oc2ccc(F)cc2F)c1 (stereo not drawn) [(E)-N-{1-Methyl-3-[3-(2,4-difluorophenoxy)phenyl]prop-2-enyl}acetohydroxamic acid] | – | – | – | – | 20.7
7 | CC(=O)N(O)C/C=C/c1cccc(Oc2ccccc2)c1 [(E)-N-[3-(3-phenoxyphenyl)prop-2-enyl]acetohydroxamic acid, reference compound] | – | – | – | 1000 | –
8 | CC(=O)N(O)C(C)/C=C/c1cccc(Oc2cc(Cl)cc(Cl)c2)c1 (stereo not drawn) [(E)-N-{1-Methyl-3-[3-(3,5-dichlorophenoxy)phenyl]prop-2-enyl}acetohydroxamic acid] | 400 nM | 1900 | > 24 | – | > 24
9 | CC(=O)N(O)C(C)/C=C/c1cccc(Oc2ccccc2)c1 (stereo not drawn) [(E)-N-[1-methyl-3-(3-phenoxyphenyl)prop-2-enyl]acetohydroxamic acid] | 80 nM | 460 | 10.7 | 1000 | 22.6
10 | CC(=O)N(O)C(C)/C=C/c1cccc(Oc2cccc(C(F)(F)F)c2)c1 (stereo not drawn) [(E)-N-{1-Methyl-3-[3-(3-trifluoromethylphenoxy)phenyl]prop-2-enyl}acetohydroxamic acid] | 110 nM | 840 | > 24 | > 1000 | > 24

Source: patent US4988733A, “N-[1-(3-phenoxyphenyl)ethyl]acetohydroxamic acid compounds which are useful anti-inflammatory agents” (Burroughs Wellcome Co., priority 1987, dated 1991)
